# Data reported in PMC5218480 (PLoS ONE, 2017).
# System: MV-4-11 cells
# Assay: Gene expression microarray analysis (Affymetrix PrimeView) and GSEA
# Assay type: cell-based, human
# Set-up: RFU PODN (11730768_x_at) / Fold change /veh PODN (11730768_x_at) / RFU LINC00158 (11744669_a_at) / Fold change /veh LINC00158 (11744669_a_at) / RFU DUSP10 (11751237_a_at) / Fold change /veh DUSP10 (11751237_a_at) / RFU ID3 (11757404_x_at) / Fold change /veh ID3 (11757404_x_at) / RFU PLEKHG5 (11737974_s_at) / Fold change /veh PLEKHG5 (11737974_s_at) / RFU LRRC4B (11730491_at) / Fold change /veh LRRC4B (11730491_at) / RFU GIMAP4 (11747438_a_at) / Fold change /veh GIMAP4 (11747438_a_at) / RFU KRT8 (11758183_x_at) / Fold change /veh KRT8 (11758183_x_at) / RFU CNN1 (11734310_a_at) / Fold change /veh CNN1 (11734310_a_at) / RFU VPS37D (11726825_at) / Fold change /veh VPS37D (11726825_at) / RFU C10orf10 (11716522_x_at) / Fold change /veh C10orf10 (11716522_x_at) / RFU KIR2DL2 /// KIR2DL4 /// KIR2DL5A /// KIR2DL5B /// KIR2DS1 /// KIR2DS2 /// KIR2DS3 /// KIR2DS4 /// KIR3DL3 /// KIR3DL3 /// KIR3DS1 (11738374_at) / Fold change /veh KIR2DL2 /// KIR2DL4 /// KIR2DL5A /// KIR2DL5B /// KIR2DS1 /// KIR2DS2 /// KIR2DS3 /// KIR2DS4 /// KIR3DL3 /// KIR3DL3 /// KIR3DS1 (11738374_at) / RFU C1QL1 (11718748_at) / Fold change /veh C1QL1 (11718748_at) / RFU TMPRSS4 (11747572_a_at) / Fold change /veh TMPRSS4 (11747572_a_at) / RFU HAMP (11756126_x_at) / Fold change /veh HAMP (11756126_x_at) / RFU RNFT2 (11725882_a_at) / Fold change /veh RNFT2 (11725882_a_at) / RFU NR4A2 (11747474_a_at) / Fold change /veh NR4A2 (11747474_a_at) / RFU ABCC12 (11746883_a_at) / Fold change /veh ABCC12 (11746883_a_at) / RFU TMEM136 (11760407_x_at) / Fold change /veh TMEM136 (11760407_x_at) / RFU CLDN22 /// WWC2 (11732394_at) / Fold change /veh CLDN22 /// WWC2 (11732394_at) / RFU HLA-DPB1 (11760878_x_at) / Fold change /veh HLA-DPB1 (11760878_x_at) / RFU SPINT1 (11716480_a_at) / Fold change /veh SPINT1 (11716480_a_at) / RFU GAP43 (11754022_s_at) / Fold change /veh GAP43 (11754022_s_at) / RFU A4GNT (11735810_at) / Fold change /veh A4GNT (11735810_at) / RFU PRB3 (11715151_x_at) / Fold change /veh PRB3 (11715151_x_at) / RFU TUBB4B (11761932_at) / Fold change /veh TUBB4B (11761932_at) / RFU CAPN14 (11732068_a_at) / Fold change /veh CAPN14 (11732068_a_at) / RFU TMCC2 (11721928_a_at) / Fold change /veh TMCC2 (11721928_a_at) / RFU IRGQ (11745062_a_at) / Fold change /veh IRGQ (11745062_a_at) / RFU FAM174B (11720279_a_at) / Fold change /veh FAM174B (11720279_a_at) / RFU TMPRSS4 (11748680_a_at) / Fold change /veh TMPRSS4 (11748680_a_at) / RFU FAM212B (11763350_a_at) / Fold change /veh FAM212B (11763350_a_at) / RFU PLEKHG5 (11743358_a_at) / Fold change /veh PLEKHG5 (11743358_a_at) / RFU ZSCAN30 (11745921_a_at) / Fold change /veh ZSCAN30 (11745921_a_at) / RFU CMKLR1 (11741424_a_at) / Fold change /veh CMKLR1 (11741424_a_at) / RFU LOC101060620 /// MAPK8IP1 (11723275_at) / Fold change /veh LOC101060620 /// MAPK8IP1 (11723275_at) / RFU SPTSSB (11747773_x_at) / Fold change /veh SPTSSB (11747773_x_at) / RFU PRSS12 (11739890_at) / Fold change /veh PRSS12 (11739890_at) / RFU BIN1 (11741810_x_at) / Fold change /veh BIN1 (11741810_x_at) / RFU WNT11 (11732464_a_at) / Fold change /veh WNT11 (11732464_a_at) / RFU C10orf10 (11716521_a_at) / Fold change /veh C10orf10 (11716521_a_at) / RFU C5orf56 (11738089_at) / Fold change /veh C5orf56 (11738089_at) / RFU CYB561 (11721691_x_at) / Fold change /veh CYB561 (11721691_x_at) / RFU ANKRD19P (11752326_a_at) / Fold change /veh ANKRD19P (11752326_a_at) / RFU OR2T12 /// OR2T33 /// OR2T8 (11738714_s_at) / Fold change /veh OR2T12 /// OR2T33 /// OR2T8 (11738714_s_at) / RFU VCAN (11748164_a_at) / Fold change /veh VCAN (11748164_a_at) / RFU JSRP1 (11732532_at) / Fold change /veh JSRP1 (11732532_at) / RFU KRTAP10-11 (11738290_x_at) / Fold change /veh KRTAP10-11 (11738290_x_at) / RFU MYO3A (11730013_a_at) / Fold change /veh MYO3A (11730013_a_at) / RFU EBF3 (11725865_a_at) / Fold change /veh EBF3 (11725865_a_at) / RFU CAMK2N1 (11719241_x_at) / Fold change /veh CAMK2N1 (11719241_x_at) / RFU C5orf56 (11738088_a_at) / Fold change /veh C5orf56 (11738088_a_at) / RFU OLFML3 (11715873_a_at) / Fold change /veh OLFML3 (11715873_a_at) / RFU LOC100653217 /// NTM (11731650_a_at) / Fold change /veh LOC100653217 /// NTM (11731650_a_at) / RFU MAPK11 (11762145_a_at) / Fold change /veh MAPK11 (11762145_a_at) / RFU FIZ1 (11724087_x_at) / Fold change /veh FIZ1 (11724087_x_at) / RFU OASL (11726364_x_at) / Fold change /veh OASL (11726364_x_at) / RFU SOX15 (11748057_x_at) / Fold change /veh SOX15 (11748057_x_at) / RFU CD79A (11719716_a_at) / Fold change /veh CD79A (11719716_a_at) / RFU HIST1H1D (11736915_at) / Fold change /veh HIST1H1D (11736915_at) / RFU CASKIN2 (11723855_a_at) / Fold change /veh CASKIN2 (11723855_a_at) / RFU LOC730098 (11760151_x_at) / Fold change /veh LOC730098 (11760151_x_at) / RFU OR4N2 (11742367_at) / Fold change /veh OR4N2 (11742367_at) / RFU PRRT2 (11749266_a_at) / Fold change /veh PRRT2 (11749266_a_at) / RFU SNX32 (11753110_a_at) / Fold change /veh SNX32 (11753110_a_at) / RFU CDHR5 (11726645_a_at) / Fold change /veh CDHR5 (11726645_a_at) / RFU RCAN1 (11760418_a_at) / Fold change /veh RCAN1 (11760418_a_at) / RFU FAM167A (11723789_a_at) / Fold change /veh FAM167A (11723789_a_at) / RFU FAM26E (11764081_at) / Fold change /veh FAM26E (11764081_at) / RFU ISYNA1 (11749810_s_at) / Fold change /veh ISYNA1 (11749810_s_at) / RFU ACY1 (11761880_at) / Fold change /veh ACY1 (11761880_at) / RFU 11764098_at / Fold change /veh 11764098_at / RFU SAMD14 (11745864_x_at) / Fold change /veh SAMD14 (11745864_x_at) / RFU NPB (11741838_a_at) / Fold change /veh NPB (11741838_a_at) / RFU TMPRSS6 (11731388_a_at) / Fold change /veh TMPRSS6 (11731388_a_at) / RFU KRTAP10-2 (11738614_at) / Fold change /veh KRTAP10-2 (11738614_at) / RFU ARHGAP8 /// PRR5-ARHGAP8 (11727945_x_at) / Fold change /veh ARHGAP8 /// PRR5-ARHGAP8 (11727945_x_at) / RFU KRTAP5-7 /// NADSYN1 (11734609_at) / Fold change /veh KRTAP5-7 /// NADSYN1 (11734609_at) / RFU RASL12 (11751679_a_at) / Fold change /veh RASL12 (11751679_a_at) / RFU CDKN2B (11736163_a_at) / Fold change /veh CDKN2B (11736163_a_at) / RFU PRF1 (11729649_at) / Fold change /veh PRF1 (11729649_at) / RFU, ZNF638 /// ZNF638-IT1 / Fold change vs veh, ZNF638 /// ZNF638-IT1 / RFU, PANK3 / Fold change vs veh, PANK3 / RFU, SH3YL1 / Fold change vs veh, SH3YL1 / RFU, ZEB2 / Fold change vs veh, ZEB2 / RFU, NRIP1 / Fold change vs veh, NRIP1 / RFU, PTTG1IP / Fold change vs veh, PTTG1IP / RFU, CAPN2 / Fold change vs veh, CAPN2 / RFU, MED14 / Fold change vs veh, MED14 / RFU, SNORA58 / Fold change vs veh, SNORA58 / RFU, C1orf63 / Fold change vs veh, C1orf63 / RFU, LRRFIP1 / Fold change vs veh, LRRFIP1 / RFU, NDUFAF7 / Fold change vs veh, NDUFAF7 / RFU, SLC12A2 / Fold change vs veh, SLC12A2 / RFU, IBTK / Fold change vs veh, IBTK / RFU, ESF1 / Fold change vs veh, ESF1 / Fold change vs veh, TMEM50B / RFU, TAOK1 / Fold change vs veh, TAOK1 / RFU, ACBD3 / Fold change vs veh, ACBD3 / RFU, TMA16 / Fold change vs veh, TMA16 / RFU, RWDD3 / Fold change vs veh, RWDD3 / RFU, BCAT1 / Fold change vs veh, BCAT1 / RFU, EDEM3 / Fold change vs veh, EDEM3 / RFU, TMEM33 / Fold change vs veh, TMEM33 / RFU, WDR75 / Fold change vs veh, WDR75 / RFU, AHCTF1 / Fold change vs veh, AHCTF1 / RFU, TFRC / Fold change vs veh, TFRC / RFU, ZDHHC17 / Fold change vs veh, ZDHHC17 / RFU, NOM1 / Fold change vs veh, NOM1 / RFU, ARL8B / Fold change vs veh, ARL8B / RFU, ZBTB11 / Fold change vs veh, ZBTB11 / RFU, TAMM41 / Fold change vs veh, TAMM41 / RFU, KIAA1704 /// LOC100996395 / Fold change vs veh, KIAA1704 /// LOC100996395 / RFU, ING1 / Fold change vs veh, ING1 / RFU, TRMT61B / Fold change vs veh, TRMT61B / RFU, FUBP3 / Fold change vs veh, FUBP3 / RFU, TP53 / Fold change vs veh, TP53 / RFU, TNKS2 / Fold change vs veh, TNKS2 / RFU, ZFP14 / Fold change vs veh, ZFP14 / RFU, ACTR2 / Fold change vs veh, ACTR2 / RFU, PPP3R1 / Fold change vs veh, PPP3R1 / RFU, PIK3R1 / Fold change vs veh, PIK3R1 / RFU, HNRNPA1 / Fold change vs veh, HNRNPA1 / RFU, RNF170 / Fold change vs veh, RNF170 / RFU, ZNF28 / Fold change vs veh, ZNF28 / RFU, RNGTT / Fold change vs veh, RNGTT / RFU, OGT / Fold change vs veh, OGT / RFU, BRD1 / Fold change vs veh, BRD1 / RFU, MARS / Fold change vs veh, MARS / RFU, ZNF655 / Fold change vs veh, ZNF655 / RFU, FAHD1 / Fold change vs veh, FAHD1 / RFU, BDP1 / Fold change vs veh, BDP1 / RFU, LRRCC1 / Fold change vs veh, LRRCC1 / RFU, ARID1A / Fold change vs veh, ARID1A / RFU, ZNF146 / Fold change vs veh, ZNF146 / RFU, ZNF330 / Fold change vs veh, ZNF330 / RFU, GPN3 / Fold change vs veh, GPN3 / RFU, C9orf123 / Fold change vs veh, C9orf123 / RFU, N4BP2L2 / Fold change vs veh, N4BP2L2 / RFU, ARFIP1 / Fold change vs veh, ARFIP1 / RFU, FAM179B / Fold change vs veh, FAM179B / RFU, BCL10 / Fold change vs veh, BCL10 / RFU, UHRF1BP1L / Fold change vs veh, UHRF1BP1L / RFU, BET1 / Fold change vs veh, BET1 / RFU, CNOT2 / Fold change vs veh, CNOT2 / RFU, ZNF268 / Fold change vs veh, ZNF268 / Fold change vs veh, ZNF507 / RFU, DGCR2 / Fold change vs veh, DGCR2 / RFU, WDSUB1 / Fold change vs veh, WDSUB1 / Fold change vs veh, HSP90B1 /// MIR3652 / RFU, ADSS / Fold change vs veh, ADSS / RFU, GK / Fold change vs veh, GK / RFU, ZNF148 / Fold change vs veh, ZNF148 / RFU, TAF9 / Fold change vs veh, TAF9 / RFU, SLC1A5 / Fold change vs veh, SLC1A5 / RFU, SLMO2 / Fold change vs veh, SLMO2 / RFU, ABCC4 / Fold change vs veh, ABCC4 / RFU, LOC101060439 /// RAP1B / Fold change vs veh, LOC101060439 /// RAP1B / RFU, RFX7 / Fold change vs veh, RFX7 / RFU, GTPBP10 / Fold change vs veh, GTPBP10 / RFU, CNEP1R1 / Fold change vs veh, CNEP1R1 / RFU, BIVM-ERCC5 /// ERCC5 / Fold change vs veh, BIVM-ERCC5 /// ERCC5 / RFU, ILF3 / Fold change vs veh, ILF3 / RFU 11762660_at / Fold change /veh 11762660_at / RFU VCAN (11757783_s_at) / Fold change /veh VCAN (11757783_s_at) / RFU DDX43 (11728927_at) / Fold change /veh DDX43 (11728927_at) / RFU KRT8 (11758188_x_at) / Fold change /veh KRT8 (11758188_x_at) / RFU NKD1 (11759106_at) / Fold change /veh NKD1 (11759106_at) / RFU SRD5A1 (11742802_a_at) / Fold change /veh SRD5A1 (11742802_a_at) / RFU TPSAB1 /// TPSB2 (11721975_s_at) / Fold change /veh TPSAB1 /// TPSB2 (11721975_s_at) / RFU GSTM3 (11746129_a_at) / Fold change /veh GSTM3 (11746129_a_at) / RFU IL23R (11737362_x_at) / Fold change /veh IL23R (11737362_x_at) / RFU TMEM51 (11727254_a_at) / Fold change /veh TMEM51 (11727254_a_at) / RFU PIWIL2 (11732686_x_at) / Fold change /veh PIWIL2 (11732686_x_at) / RFU ORM1 (11744905_x_at) / Fold change /veh ORM1 (11744905_x_at) / RFU CCDC152 (11743942_at) / Fold change /veh CCDC152 (11743942_at) / RFU ECM1 (11717891_a_at) / Fold change /veh ECM1 (11717891_a_at) / RFU IL23R (11748794_a_at) / Fold change /veh IL23R (11748794_a_at) / RFU TNFAIP8L3 (11732012_x_at) / Fold change /veh TNFAIP8L3 (11732012_x_at) / RFU MBOAT4 (11741988_at) / Fold change /veh MBOAT4 (11741988_at) / RFU 11764193_at / Fold change /veh 11764193_at / RFU TMEM53 (11763286_at) / Fold change /veh TMEM53 (11763286_at) / RFU MAGEB2 (11727129_at) / Fold change /veh MAGEB2 (11727129_at) / RFU TMEM200A (11744735_a_at) / Fold change /veh TMEM200A (11744735_a_at) / RFU CCDC152 (11751479_a_at) / Fold change /veh CCDC152 (11751479_a_at) / RFU FAM211A (11726209_a_at) / Fold change /veh FAM211A (11726209_a_at) / RFU RGS16 (11746705_a_at) / Fold change /veh RGS16 (11746705_a_at) / RFU VCAN (11755009_s_at) / Fold change /veh VCAN (11755009_s_at) / RFU RHOB (11743442_s_at) / Fold change /veh RHOB (11743442_s_at) / RFU RGS16 (11720943_a_at) / Fold change /veh RGS16 (11720943_a_at) / RFU RGS16 (11720944_at) / Fold change /veh RGS16 (11720944_at) / RFU, VPS4B / Fold change vs veh, VPS4B / RFU, CREB1 / Fold change vs veh, CREB1 / RFU, DNAJC13 / Fold change vs veh, DNAJC13 / RFU, GNAQ / Fold change vs veh, GNAQ / RFU, CDK5R1 / Fold change vs veh, CDK5R1 / RFU, ZRANB3 / Fold change vs veh, ZRANB3 / RFU, CUL4A / Fold change vs veh, CUL4A / RFU, CCNY / Fold change vs veh, CCNY / RFU, UFL1 / Fold change vs veh, UFL1 / RFU, COG3 / Fold change vs veh, COG3 / RFU, DIAPH2 / Fold change vs veh, DIAPH2 / RFU, SKA2 / Fold change vs veh, SKA2 / RFU, AFF3 / Fold change vs veh, AFF3 / RFU, LMF1 / Fold change vs veh, LMF1 / RFU, IPO11 / Fold change vs veh, IPO11 / RFU, DFFB / Fold change vs veh, DFFB / RFU, FOXP1 / Fold change vs veh, FOXP1 / RFU, CARD8 / Fold change vs veh, CARD8 / RFU, STRN3 / Fold change vs veh, STRN3 / RFU, ADK / Fold change vs veh, ADK / RFU, RASSF2 / Fold change vs veh, RASSF2 / RFU, WIPF1 / Fold change vs veh, WIPF1 / RFU, LARP1B / Fold change vs veh, LARP1B / RFU, RASA1 / Fold change vs veh, RASA1 / RFU, RB1 / Fold change vs veh, RB1 / RFU, PPFIA1 / Fold change vs veh, PPFIA1 / RFU, MAT2A / Fold change vs veh, MAT2A / RFU, CCT5 / Fold change vs veh, CCT5 / RFU, WDR92 / Fold change vs veh, WDR92 / RFU, CUX1 / Fold change vs veh, CUX1 / RFU, TTC7A / Fold change vs veh, TTC7A / RFU, TMEM135 / Fold change vs veh, TMEM135 / RFU, DEPTOR / Fold change vs veh, DEPTOR / RFU, CPM / Fold change vs veh, CPM / RFU, DNAJB6 / Fold change vs veh, DNAJB6 / RFU, CACNA2D3 / Fold change vs veh, CACNA2D3 / RFU, DTX4 / Fold change vs veh, DTX4 / RFU, TFCP2 / Fold change vs veh, TFCP2 / RFU, GMCL1 /// GMCL1P1 / Fold change vs veh, GMCL1 /// GMCL1P1 / RFU, AEBP2 / Fold change vs veh, AEBP2 / RFU, SNHG1 /// SNORD22 /// SNORD25 /// SNORD26 /// SNORD27 /// SNORD28 /// SNORD29 /// SNORD31 / Fold change vs veh, SNHG1 /// SNORD22 /// SNORD25 /// SNORD26 /// SNORD27 /// SNORD28 /// SNORD29 /// SNORD31 / Fold change (Aza/veh), C12orf56 (ProbeSet 11735607_a_at) / Fold change (ACY-1035/veh), C12orf56 (ProbeSet 11735607_a_at) / Fold change (Aza/veh), FGFR1OP (ProbeSet 11751329_s_at) / Fold change (ACY-1035/veh), FGFR1OP (ProbeSet 11751329_s_at) / Fold change (Aza/veh), VPS36 (ProbeSet 11739960_a_at) / Fold change (ACY-1035/veh), VPS36 (ProbeSet 11739960_a_at) / RFU SYPL1 (11715823_x_at) / Fold change /veh SYPL1 (11715823_x_at) / RFU IGFBP7 (11715501_s_at) / Fold change /veh IGFBP7 (11715501_s_at) / RFU REEP3 (11722064_at) / Fold change /veh REEP3 (11722064_at) / RFU IGLL1 (11728026_x_at) / Fold change /veh IGLL1 (11728026_x_at): dose or concentration left out as unconfirmed
# Conditions: MV-4-11 cells, 48 hours
smiles,measurement,value
Nc1ncn([C@@H]2O[C@H](CO)[C@@H](O)[C@H]2O)c(=O)n1 [azacitidine],Fold change /veh RGS16 (11720944_at),1.54
